In US20230226198A1, “Artemisinin Derivatives” (DA ZEN THERANOSTICS, INC., priority 2019, published 2023):
Read-outs that look alike come from different tables or passages of the source.

Experiments:
[1] = test system: L858R/T790M EGFR versus wild-type EGFR; conditions: inhibiting phosphorylation of EGFR in cell lines; cited from earlier work
[2] = test system: Caki-1 cells (human clear cell renal cell carcinoma cells); assay: MTT cell viability / IC50 assay, Caki-1; assay type: cell-based
Procedure: (§1) Cell culture: In the following examples, unless otherwise specified, all cell lines are purchased from American Type Culture Collection and cultured in American Type Culture Collection (ATCC)-recommended media, with fetal bovine serum (FBS) to a final concentration of 10% and 1× penicillin/streptomycin at 37° C. with 5% CO2 in a cell culture incubator, unless otherwise specified. Unless otherwise specified, culture is 2D. Where culture is 3D, low attachment plates are used, with the same media. C4-2B (ATCC® CRL-3315™, human prostate cancer cells of epithelial morphology) parental cell line and drug-resistant cells derived therefrom) are cultured in RPMI-1640 with 10% FBS. MDVR cells (an Enzalutamide-resistant variety of C4-2B prostate cancer cells formed as described below) are cultured as indicated for the parental C4-2B cells. Caki-1 cells (human clear cell renal cell carcinoma cells) are cultured in ATCC-formulated McCoy's 5a Medium Modified (ATCC Catalog No. 30-2007) with 10% FBS. PC3 cells (ATCC® CRL-1435™, a human prostate cancer cell line of epithelial morphology initiated from a bone metastasis of a grade IV prostatic adenocarcinoma) are cultured in F-12K with 10% FBS. 22RV1 Prostate Cancer (PC) cells (ATCC® CRL-2505™, a human prostate carcinoma cell line of epithelial morphology) are cultured in RPMI-1640 with 10% FBS. DU145 cells (ATCC® HTB-81™, a human cell line derived from a prostate-originating brain metastase, not detectably hormone sensitive, not expressing prostate antigen; forms adenocarcinoma grade II in nude mice) are cultured in ATCC-formulated Eagle's Minimum Essential Medium (EMEM, Catalog No. 30-2003). H446 cells (ATCC® HTB-171™, a human small cell carcinoma SC lung cancer (SCLC) cell line derived from a metastatic site) are cultured in RPMI-1640 with 10% FBS. H358 cells (ATCC® CRL-5807™, a human non-small cell lung cancer (NSCLC) cell line that expresses protein and RNA of SP-A, the major lung surfactant associated protein, and produces tumors in athymic nude mice) are cultured in RPMI-1640 Medium with 10% FBS. BxPC3 cells (ATCC® CRL-1687™, an adenocarcinoma-derived pancreatic cancer cell line that expresses pancreas cancer specific antigen and carcinoembryonic antigen and forms tumors in nude mice) are cultured in RPMI-1640 with 10% FBS.
Example 1: A cell assay is performed exposing cells cultured as described above to various drugs indicated below for 24 hours unless otherwise indicated. Each of the cell lines is treated either with a THAD (e.g. DZ-DHA-ether, MI-148-bis-DHA), or for comparison, with the DHA mono-ester “DZ-DHA”; alternatively/additionally, DZ1 and/or unconjugated DHA may serve as comparants. For each cell line, the IC50 is determined for each drug in concentrations from 0 to 100 μM. […] In the controls (not shown in the figures), the cells are exposed to DMSO (vehicle) for a final concentration that equals the highest concentration of the drug tested, to a maximum concentration less than 0.1% v/v. 4 hours before culture end/SDS addition, 10 μL MTT (3-(4,5-Dimethyl-2-thiazolyl)-2,5-diphenyl-2H-tetrazolium bromide, Sigma-Aldrich) is added to wells containing the cells. At the end of culture, 100 μl 10% SDS is added and then the plate containing the cells is placed in a 37° C. cell culture incubator for 8 hours. The absorbance density of the supernatant is read on a 96-well microplate reader at wavelength 595 nm. The results of Caki-1 and MDRV are indicated in the table below along with preliminary results for further cancer cell lines (including, e.g., C4-2B, Abi-R, PC3, 22Rv1, DU145, H358, H446, BxPC3), and the corresponding curves are shown in FIG. 2A (Caki-1) and FIG. 2B (MDVR).

[3] = test system: MDVR cells (Enzalutamide-resistant C4-2B prostate cancer cells); assay: MTT cell viability / IC50 assay, MDVR; assay type: cell-based; conditions: Homo sapiens
Procedure: as §1
Resistant prostate cancer cell lines MDVR and AbiR: MDVR cells are Enzalutamide-resistant cells, AbiR are Abiraterone acetate resistant cells, formed from parental C4-2B prostate cancer cells as follows. A cell assay is performed exposing cells cultured as described above to various drugs indicated below for 72 hours. Parental C4-2B cells are C4-2B non-resistant cells not previously exposed to cancer drugs. Drug-resistant C4-2B cells are created by prolonged exposure to the relevant drug, i.e. Enzalutamide for MDVR, and Abiraterone acetate for AbiR cells, at initially sub-lethal and gradually increasing concentrations until resistance is achieved.
Example 1: A cell assay is performed exposing cells cultured as described above to various drugs indicated below for 24 hours unless otherwise indicated. Each of the cell lines is treated either with a THAD (e.g. DZ-DHA-ether, MI-148-bis-DHA), or for comparison, with the DHA mono-ester “DZ-DHA”; alternatively/additionally, DZ1 and/or unconjugated DHA may serve as comparants. For each cell line, the IC50 is determined for each drug in concentrations from 0 to 100 μM. […] In the controls (not shown in the figures), the cells are exposed to DMSO (vehicle) for a final concentration that equals the highest concentration of the drug tested, to a maximum concentration less than 0.1% v/v. 4 hours before culture end/SDS addition, 10 μL MTT (3-(4,5-Dimethyl-2-thiazolyl)-2,5-diphenyl-2H-tetrazolium bromide, Sigma-Aldrich) is added to wells containing the cells. At the end of culture, 100 μl 10% SDS is added and then the plate containing the cells is placed in a 37° C. cell culture incubator for 8 hours. […]

C4-2B MDVR cells = assay: Seahorse XF mitochondrial function (OCR/ECAR); assay type: cell-based, human; conditions: 5 uM, over 12 hours
Procedure: Example 5 C: To determine mitochondrial function of cancer cells (here C4-2B MDVR), the cells are treated with vehicle, DZ (5 uM), DHA (5 uM), and DZ-003 (5 uM) over 12 hours, and the oxygen consumption rate (OCR) from respiration and extracellular acidification rate (ECAR) from glycolysis of the live cells is determined in a metabolic chamber in a 24-well plate format using a Seahorse XF analyzer (Seahorse XFe24, Agilent, Calif.). Reagents (drugs/controls) are added to the wells just before start of the recording at time 0, and the effect of the drugs on the basal mitochondrial function is recorded by the analyzer for about 12 hours (720 minutes). All reagents used are Agilent reagents. Cells are seeded and cultured in Seahorse XF RPMI Medium, pH 7.4. The seeding rate is 8×10^5 for the cells to reach about 90% confluency within about 24 hours when the analysis is started. The protocol is essentially performed as per the standard protocol of the manufacturer, removing the medium, washing the cells once with XF Real-Time ATP Rate Assay Medium, then starting the measurement as per the instrument's pre-programming and subsequent real-time measurements of OCAR/ECAR. Preliminary experiments indicate that the THAD as described herein may have an increased effect compared to DZ3a.

[4] = Caki-1, 24 hours, relative IC50, read-out: IC50
[5] = Caki-1, unit inferred, read-out: IC50 (FIG. 2A description)
[6] = ENZ-resistant C4-2B cells (MDVR), unit inferred, read-out: IC50 (FIG. 2B description)
[7] = MDVR, 24 hours, relative IC50, read-out: IC50

Row | IC50 [2, 4] [nM] | IC50 [2, 5] [nM] | IC50 [3, 6] [nM] | IC50 [3, 7] [nM] | Structure (SMILES) | potency against L858R/T790M relative to wild-type EGFR [1] | lowering of OCR (in words) (C4-2B MDVR cells)
1 | – | – | – | – | C=CC(=O)Nc1cc(Nc2nccc(-c3cn(C)c4ccccc34)n2)c(OC)cc1N(C)CCN(C)C [Osimertinib] | 100-200 times | –
2 | 1420 | 500 to 1500 | 3470 | < 3470 | C[C@@H]1CC[C@H]2[C@@H](C)C(OCCNC(=O)CCCCCN3/C(=C/C=C4\CCCC(/C=C/C5=[N+](CCCCS(=O)(=O)[O-])c6ccccc6C5(C)C)=C4Cl)C(C)(C)c4ccccc43)O[C@@H]3O[C@]4(C)CC[C@@H]1[C@]32OO4 (stereo partly shown) [DZ-DHA-ether] | – | –
3 | – | – | – | – | CC1(C)C(/C=C/C2=C(Cl)C(=C/C=C3/N(CCCCCC(=O)O)c4ccccc4C3(C)C)/CCC2)=[N+](CCCCS(=O)(=O)[O-])c2ccccc21 [DZ1] | – | drop much less
4 | 710 | 500 to 1500 | < 1000 | 860 | C[C@@H]1CC[C@H]2[C@@H](C)C(OC(=O)CCCCCN3/C(=C/C=C4\CCCC(/C=C/C5=[N+](CCCCCC(=O)OC6O[C@@H]7O[C@]8(C)CC[C@H]9[C@H](C)CC[C@@H]([C@H]6C)[C@@]79OO8)c6ccccc6C5(C)C)=C4Cl)C(C)(C)c4ccccc43)O[C@@H]3O[C@]4(C)CC[C@@H]1[C@]32OO4 (stereo partly shown) [MHI-148-bis-DHA] | – | –
